Reference: patent US20170058319A1, “NANOSENSOR FOR ASSESSING THROMBIN INHIBITORS” (VIRGINIA COMMONWEALTH UNIVERSITY, priority 2014, published 2017)
Entries after “also recorded” stand apart in the source; their conditions may differ. Values belong to the compound of their own block, whether it stands above or below them.

How the values were obtained:
[1] = Protocol: Stability of Au-TH nanoparticles was studied at RT and at −80° C. The NPs were kept in dark at RT for six hours and at −80° C. for 1 month. Absorbance spectra were measured every hour.
[2] = Catalytic activity of surface bound thrombin, Michaelis Menten kinetics; assay type: biochemical; details: PBS pH 7.4, 37° C., Spectrozyme TH 0.7-750 μM
Protocol: Michaelis Menten kinetics were utilized to test the catalytic activity of the surface bound thrombin on the AuNP-TH using a microplate chromogenic substrate hydrolysis assay. Briefly, 165 μL aliquots of PBS buffer pH 7.4 were placed in a 96-well microplate, to which either 5 μL of thrombin at a concentration of 0.04 mg/ml (1 μM) or 5 μL of AuNP-TH was added. The solution was incubated for 5 minutes at 37° C., followed by addition of 30 μL of serial dilutions of Spectrozyme TH substrate such that the final concentrations ranged from 0.7-750 μM. The velocity of substrate hydrolysis was measured by monitoring the slope of the increase in absorbance at 405 nm. A plot of velocity of substrate hydrolysis (v) vs substrate concentration ([S]) (FIG. 5) was fit to the Michaelis Menten equation below to yield the Michaelis Menten constant (KM) and maximum velocity of the reaction (VMAX), which are a direct measure of the catalytic efficiency of the enzyme.

AT levels = details: in vivo; cited from earlier work
PF-4 heparin complex = biological target: T1, PF-4 heparin complex (Homo sapiens, UniProt P02776); details: in vivo; cited from earlier work
T1 sequence (P02776 32-101): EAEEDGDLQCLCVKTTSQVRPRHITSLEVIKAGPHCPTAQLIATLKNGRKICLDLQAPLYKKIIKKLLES

[3] = biological target: T2, NSET pair (Au-TH-NS and HirP) (Bos taurus, UniProt P00735); experiment: Probing antithrombin levels in plasma with NSET pair; assay type: binding, bovine; details: 600 μM BSA, 5-20 μL
T2 construct: An aliquot of bovine α-thrombin (200 μg) from a stock solution; purchased Haematologic Technologies, Vermont, USA BCT-1020
Protocol: A 96-well plate was used for this experiment. The baseline fluorescence of the NSET pair (Au-TH-NS (6 nM, 50 μL) and HirP (50 μL, 30 nM) in 50 μL of 20 mM Tris-HCl buffer, pH 7.4, containing 100 mM NaCl, 2.5 mM CaCl2 and 0.1% PEG8000) was measured by recording the fluorescence emission at 525 nm (λex=488 nm). The NSET pair was then incubated with different volumes of plasma (5 μL, 10 μL, 15 μL and 20 μL). To assess specificity of AT reaction, the NSET pair was also incubated with 600 μM BSA (5 μL, […], 15 μL and 20 μL). The fluorescence intensity was recorded within 1-3 min after incubation began (FIG. 6).

Au-TH nanoprobe = biological target: T3, Au-TH nanoprobe (Bos taurus, UniProt P00735); experiment: Quenching of [5F]-hirudin (54-65) SO3- fluorescence by Au-TH nanoprobe; assay type: binding, bovine; details: 30 nM HirP, 0.5 h at RT, 525 nm (λex=488 nm)
T3 construct: An aliquot of bovine α-thrombin (200 μg) from a stock solution; purchased Haematologic Technologies, Vermont, USA BCT-1020

[4] = biological target: T4, Au-TH-HirP nanoprobe (NSET pair) (Bos taurus, UniProt P00735); experiment: Probing antithrombin levels in buffer with Au-TH-HirP nanoprobe (NSET pair); assay type: binding, bovine; details: for increase in fluorescence at 525 nm: 1 hr incubation
T4 construct: An aliquot of bovine α-thrombin (200 μg) from a stock solution; purchased Haematologic Technologies, Vermont, USA BCT-1020
Protocol: Au-TH-NP (6 nM, 50 μL) and HirP (50 μL, 30 nM) were mixed with 20 mM Tris-HCl buffer, pH 7.4, containing 100 mM NaCl, 2.5 mM CaCl2 and 0.1% PEG8000 and used as the standard nano-metal surface energy transfer (NSET) pair. Antithrombin (AT) was serially diluted starting from 100 μM to 1 pM by adding 20 mM Tris-HCl buffer, pH 7.4. Serially diluted AT solutions were then incubated with standard NSET pair in a 96-well plate for 0-1 h at RT with gentle rocking. A solution of 100 μL of Au-TH-HirP nanoprobe (NSET pair) mixed with 50 μL of buffer was used a control (F0). After 1 h of incubation, the 96-well plate was read at 525 nm (λex=488 nm) (F). A plot of F/F0 as Y-axis against AT concentration as X-axis is shown as FIG. 5. […] The fluorescence increases were smaller at 15, 30 and 45 min timepoints (FIG. 5).

[5] = biological target: T5, surface bound thrombin on the AuNP (Bos taurus, UniProt P00735); experiment: Reactivity of surface bound thrombin to antithrombin, chromogenic substrate hydrolysis assay; assay type: biochemical, bovine; details: AT alone
T5 construct: An aliquot of bovine α-thrombin (200 μg) from a stock solution; purchased Haematologic Technologies, Vermont, USA BCT-1020
Protocol: To test if the surface bound thrombin on the AuNP is reactive towards antithrombin, chromogenic substrate hydrolysis assay like the one mentioned above was performed in the presence of antithrombin and heparin. In a 96-well microplate, 80 μL of PBS buffer was mixed with 5 μL of either AuNP or water. Following this, 5 μL of AT (100 μM) and 5 μL of heparin (3.6 mM) was added and the mixtures were incubated at 25° C. for 20 minutes. Controls were kept with and without AT and heparin, respectively. After incubation, 5 μL of 5 mM Spectrozyme TH was added and the rate of substrate hydrolysis was monitored by observing the absorbance at 405 nm. The velocity of the substrate hydrolysis as obtained by the slope was compared to that of the controls in order to assess the reactivity of the thrombin towards AT (FIG. 6). An approximate 70% reactivity towards AT in the presence of heparin is observed for the AuNP-TH sample.

[6] = in vivo; cited from earlier work
[7] = cited from earlier work

Compound: Au-TH nanoparticles: gold nanoparticles covalently linked to bovine alpha-thrombin
stability, change in absorbance spectra ([1]; RT, in dark, six hours): essentially no change
stability, degradation on storage ([1]; −80° C., 1 month): did not exhibit any degradation
VMAX and KM / catalytic efficiency compared with free thrombin ([2]; listed as Au-TH NP): identical to that of free thrombin
VMAX and KM / catalytic efficiency compared with free thrombin ([2]; listed as AuNP-TH): remain almost the same as that of free thrombin

Compound: heparin
incidence of acquired AT deficiency (AT levels): ≤ 25%

Compound: unfractionated heparin [UFH]
patients forming antibodies to PF-4 heparin (PF-4 heparin complex): 30-40%

Compound: bovine serum albumin [BSA]
change in emission intensity [3]: significant decrease; also recorded: Corresponding increases were not observed

Compound: [5F]-hirudin (54-65) SO3^− [HirP]
quenching of fluorescence from HirP (Au-TH nanoprobe): approximately 86%

fluorescence increases at earlier timepoints ([4]; 15, 30 and 45 min timepoints versus 1 hr): smaller
increase in fluorescence at 525 nm ([4]; AT 1 μM): approximately 40%
increase in fluorescence at 525 nm ([4]; AT 10 μM): ~25
increase in fluorescence at 525 nm ([4]; AT 100 μM): ~20%
increase in fluorescence ([4]; AT concentrations less than 1 μM): Noticeable increases
neutralization of surface bound thrombin by AT [5]: up to 60%
Compound: antithrombin [AT]

Compound: bivalirudin
half-life [6]: 25 min

Compound: CCCCCCOC(=O)NC(=N)c1ccc(NCc2nc3cc(C(=O)N(CCC(=O)OCC)c4ccccn4)ccc3n2C)cc1 [Dabigatran etexilate]
liver function tests ([7]; doses as high as 300 mg twice a day for 12 weeks): no abnormal liver function tests
patients who developed significant bleeding ([7]; trial with and without aspirin): approximately 11%
